Assay results reported in publication PMC3612106, “Metabolism of BYZX in Human Liver Microsomes and Cytosol: Identification of the Metabolites and Metabolic Pathways of BYZX” (PLoS ONE, 2013).
Where two headings read alike, the source gives them in different places.

How the values were obtained:
CYP2C8 = biological target: T1, CYP2C8 (Homo sapiens, UniProt P10632); assay: Incubation and kinetics with recombinant human CYP2C8; assay type: in vitro ADME; conditions: for K m of N-des-ethylation: recombinant CYP2C8 0.1 mg/mL
T1 construct: purchased BD Gentest (Woburn, MA); host or cells: baculovirus-insect cells
T1 sequence (P10632 1-490): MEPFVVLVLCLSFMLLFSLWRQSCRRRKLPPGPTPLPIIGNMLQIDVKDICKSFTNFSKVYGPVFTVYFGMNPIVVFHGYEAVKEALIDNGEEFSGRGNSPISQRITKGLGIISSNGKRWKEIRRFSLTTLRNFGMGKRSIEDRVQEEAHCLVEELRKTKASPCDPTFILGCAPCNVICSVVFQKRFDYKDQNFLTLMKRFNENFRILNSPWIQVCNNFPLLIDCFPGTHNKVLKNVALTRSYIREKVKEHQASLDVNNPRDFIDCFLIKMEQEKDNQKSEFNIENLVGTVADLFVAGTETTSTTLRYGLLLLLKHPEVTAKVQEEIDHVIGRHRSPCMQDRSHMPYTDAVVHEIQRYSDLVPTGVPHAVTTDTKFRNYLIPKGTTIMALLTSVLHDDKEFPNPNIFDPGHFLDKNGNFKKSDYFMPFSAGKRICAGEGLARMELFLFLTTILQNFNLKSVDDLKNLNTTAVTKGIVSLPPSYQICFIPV
Description: (§1) Commercial baculovirus-insect cell-expressed human CYPs (0.1 mg/mL) including CYP1A2, 2A6, 2B6, 2C8, 2C9, 2C19, 2D6, 2E1 and 3A4 were incubated with 20 µM BYZX and 3 µM M2 in the aforementioned method respectively. After 40 min 1 volume of ice cold methanol was added to terminate the reaction. The mixture was vortexed for 1 min and centrifuged at 13 000 rpm for 15 min. 7 µL of the supernatant was injected into the LC-MS system for analysis.
(§2) The kinetics studies were performed using human liver cytosol, HLMs, and recombinant human CYP3A4 and CYP2C8. Before the kinetic study, the incubation time and the enzyme concentration for linear formation of metabolites were optimized. The concentrations of cytosol, HLMs, CYP3A4 and CYP2C8 protein were 0.4, 0.4, 0.04 and 0.1 mg/mL, respectively. The incubation times of HLMs, CYP3A4 and CYP2C8 were […], respectively. […] The following equation was applied, assuming a Michaelis–Menten equation: V = V max× [S]/(K m+[S]), where V is the rate of reaction, V max is the maximum velocity, K m is the Michaelis constant (substrate concentration at half of V max), and [S] is the substrate concentration. Eadie-Hofstee plot was used to confirm allosteric kinetics.

[1] = Metabolism and kinetics in pooled HLMs; assay type: in vitro ADME, human; conditions: for K m of N-des-ethylation: HLMs 0.4 mg/mL; for microsomal CLint: pooled human liver microsomes
Description: BYZX (20 µM) was incubated in a 200 µL of reaction buffer solution containing 0.1 M Tris-HCl (pH 7.4), 0.15 M MgCl2, NADPH-generating system (9.7 mM dl-isocitrate trisodium and 0.07 unit of isocitrate dehydrogenase), and 1 mg/mL pooled HLMs. The incubation mixture was preincubated at 37°C for 5 min, and then the reaction was initiated by adding 4 µL of NADP/NADPH solution (0.026 M NADP and 0.012 M NADPH in 1% NaHCO3 solution). After incubation at 37°C for 120 min, 200 µL of cold methanol was added to terminate the reaction and precipitate the protein. The mixture was vortexed for 1 min and centrifuged at 13 000 rpm for 15 min. 7 µL of the supernatant was injected into the LC system.
(§3) Moreover, very small amount of M3 was isolated from pooled incubation samples by HPLC-UV on an ODS column with a gradient solvent system consisting of methanol and 10 mM ammonium formate in water. Then, M3 were incubated in pooled HLMs, recombinant CYPs, and human cytosol to confirm the further metabolism.
as §2

CYP3A4 [2] = biological target: T2, CYP3A4 (Homo sapiens, UniProt P08684); assay: Incubation and kinetics with recombinant human CYP3A4; assay type: in vitro ADME; set-up: purchased BD Gentest (Woburn, MA); host or cells: baculovirus-insect cells; conditions: for K m of N-des-ethylation: recombinant CYP3A4 0.04 mg/mL, BYZX fitted to allosteric sigmoidal kinetics
Description: as §1, §2
Target sequence in this assay (P08684 whole entry): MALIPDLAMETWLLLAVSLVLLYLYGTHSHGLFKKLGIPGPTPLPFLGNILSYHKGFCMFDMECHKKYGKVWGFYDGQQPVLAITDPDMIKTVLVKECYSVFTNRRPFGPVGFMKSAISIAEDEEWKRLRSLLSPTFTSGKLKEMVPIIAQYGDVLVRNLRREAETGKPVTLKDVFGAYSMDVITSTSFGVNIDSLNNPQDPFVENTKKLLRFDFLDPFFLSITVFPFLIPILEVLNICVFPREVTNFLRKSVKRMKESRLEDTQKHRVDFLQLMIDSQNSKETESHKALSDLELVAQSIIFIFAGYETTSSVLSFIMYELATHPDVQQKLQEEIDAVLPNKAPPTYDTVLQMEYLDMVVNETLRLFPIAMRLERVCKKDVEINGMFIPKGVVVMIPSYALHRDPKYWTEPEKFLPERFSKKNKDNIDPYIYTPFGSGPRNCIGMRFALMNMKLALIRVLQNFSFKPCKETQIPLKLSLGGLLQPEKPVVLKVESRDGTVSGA

[3] = test system: formation of M2 from BYZX in HLMs; assay: Inhibition of BYZX hydrogenation in HLMs; assay type: in vitro ADME, human; conditions: 20 µM BYZX
Description: (§4) Some reductase inhibitors and substrate were used to inhibit the hydrogenate reaction of BYZX. 20 µM BYZX was incubated with 100 µM dicoumarol in human liver cytosol and was incubated with 100 µM benzylideneacetone and with 20 µM finasteride in HLMs, respectively.

pooled HLMs = assay: Initial estimation of metabolism enzymes in pooled HLMs; assay type: in vitro ADME, human; conditions: 5 mM ABT preincubated 30 min, 0.4 mg/mL pooled HLMs, 20 µM BYZX
Description: Initial estimation of the main metabolic pathway in HLMs was performed using specific inhibitors, or by altering experimental conditions, to identify CYP and non-CYP metabolic pathway. Three groups of incubation of BYZX with pooled HLMs under different additive processes were carried out in parallel to identify whether the metabolites produced were mediated by CYPs or not. In Group I, the incubation mixture including 0.4 mg/mL pooled HLMs protein, 4 µL of NADP/NADPH solution (0.026 M NADP and 0.012 M NADPH in 1% NaHCO3 solution) and 5 mM 1-aminobenzotriazole (ABT, 1 M dissolved in dimethyl sulfoxide, DMSO) were preincubated at 37°C for 30 min, and then 20 µM BYZX was added into the incubation system (n = 2). In Group II, the incubation mixture including 0.4 mg/mL pooled HLMs protein were preincubated at 45°C for 10 min to abolish the activities of the flavin-containing monooxygenases (FMOs), and then 20 µM BYZX was added and precincubated at 37°C for 5 min, and then 4 µL of NADP/NADPH solution was added to initiate the reaction (n = 2). In Group III, the incubation mixture including 0.4 mg/mL pooled HLMs protein and 20 µM BYZX were preincubated at 37°C for 5 min, and then 4 µL of NADP/NADPH solution or […] NaHCO3 solution were added to initiate the reaction (n = 2). […]

CYP3A4 [4] = biological target: T2, CYP3A4; assay: in vitro; conditions: pooled human liver microsomes, probe M2 20 µM (formation of M1)
Target sequence in this assay (P08684 2-503): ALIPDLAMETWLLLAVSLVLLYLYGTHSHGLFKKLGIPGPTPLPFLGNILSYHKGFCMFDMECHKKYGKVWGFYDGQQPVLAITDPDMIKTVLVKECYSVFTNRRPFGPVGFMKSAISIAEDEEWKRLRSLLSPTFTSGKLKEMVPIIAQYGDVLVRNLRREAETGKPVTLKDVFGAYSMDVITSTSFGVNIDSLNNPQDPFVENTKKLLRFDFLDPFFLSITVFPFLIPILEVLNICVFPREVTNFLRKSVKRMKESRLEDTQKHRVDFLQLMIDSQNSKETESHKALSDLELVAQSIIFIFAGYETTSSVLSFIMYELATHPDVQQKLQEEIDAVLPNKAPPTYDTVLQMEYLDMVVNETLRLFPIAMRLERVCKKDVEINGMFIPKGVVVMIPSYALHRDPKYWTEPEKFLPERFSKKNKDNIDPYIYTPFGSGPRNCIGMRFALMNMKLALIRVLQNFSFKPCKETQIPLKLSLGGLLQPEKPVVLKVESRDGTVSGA

[5] = Metabolism and kinetics in human liver cytosol; assay type: in vitro ADME
Description: as §3, §2
Estimation of the kinetics for BYZX hydrogenation in human liver cytosol was similar to what described above. BYZX in a series of concentration (5.0, 10.0, 20.0, 40.0, 100.0, 150.0, 200.0 µM) were incubated with 0.2 mg/mL of cytosol protein for 20 min at 37°C, and the different formation rates of M2 were assayed for estimating the kinetic parameters.

[6] = biological target: T3, NADPH-CYP450 oxidoreductase (OR) and cytochrome b5 (cyt b5) (Homo sapiens, UniProt P00167+P16435); assay: Incubation with recombinant OR and cyt b5 (Sf9 expression); assay type: in vitro ADME
T3 construct: made in house; host or cells: Sf9 insect cells
Description: In order to determine whether OR and cyt b5 are the reductases of BYZX, OR and cyt b5 were expressed individually and together in our previous method using insect cell expression system, Sf9 cell line, [14]. The incubation method was similar to what described above. The production of M2 was determined.

[7] = test system: chemical-induced learning and memory impairments; conditions: rodents; cited from earlier work
PC12 cells = conditions: cited from earlier work
[8] = test system: reductase-mediated hydrogenation of BYZX (formation of M2); assay: in vitro; assay type: in vitro ADME, human; conditions: human
Description: as §4

[9] = test system: formation of M2 from BYZX in human liver cytosol; assay: in vitro; assay type: in vitro ADME; conditions: 100 µM inhibitor, 20 µM BYZX, human liver cytosol (Fig. 6B)
Description: as §4

## CCN(CC)Cc1ccc(CC2Cc3cc(OC)c(OC)cc3C2=O)cc1 (stereo not shown) [M2]
CYP2C8; human, recombinant human CYP2C8 (baculovirus-insect cell-expressed), recombinant CYP2C8, read-out: Cl int of N-des-ethylation (M1 formation)
  microsomal CLint: 2.58 µL/min/mg
CYP2C8; recombinant CYP2C8
  V max of N-des-ethylation (M1 formation): 0.370±0.024 nmol/min/mg protein
CYP2C8
  K m of N-des-ethylation: 143.2 ± 17.7 µM
[1]; HLMs
  V max of N-des-ethylation (M1 formation): 0.209±0.010 nmol/min/mg protein
[1]
  K m of N-des-ethylation: 105.7 ± 10.9 µM
[1]; human, pH 7.4, HLMs, read-out: Cl int of N-des-ethylation (M1 formation)
  microsomal CLint: 1.98 µL/min/mg
CYP3A4 [2]; human, recombinant human CYP3A4 (baculovirus-insect cell-expressed), recombinant CYP3A4, read-out: Cl int of N-des-ethylation (M1 formation)
  microsomal CLint: 6.01 µL/min/mg
CYP3A4 [2]; recombinant CYP3A4
  V max of N-des-ethylation (M1 formation): 0.392±0.016 nmol/min/mg protein
CYP3A4 [2]
  K m of N-des-ethylation: 65.2 ± 7.2 µM
CYP3A4 [2]; recombinant CYP3A4 vs CYP2C8
  Cl int of CYP3A4 compared with that of CYP2C8 (M1 formation): over 2 folds

## CC(C)(C)NC(=O)[C@H]1CC[C@H]2[C@@H]3CC[C@H]4NC(=O)C=C[C@]4(C)[C@H]3CC[C@]12C [finasteride]
[3]; 20 µM finasteride
  Effect on hydrogenation of BYZX (formation of M2): no inhibitory effect

## Nn1nnc2ccccc21 [ABT, 1-aminobenzotriazole]
Pooled HLMs
  Effect on formation of desethyl metabolite M3 from BYZX: extensively suppressed
  Effect on hydrogenation of BYZX to M2: not significantly inhibited

## CC(=O)N1CCN(c2ccc(OCC3COC(Cn4ccnc4)(c4ccc(Cl)cc4Cl)O3)cc2)CC1 (stereo not shown) [ketoconazole]
CYP3A4 [4]
  IC50: 9.8 ± 1.2 µM

## CCN(CC)Cc1ccc(/C=C2\Cc3cc(OC)c(OC)cc3C2=O)cc1 [BYZX, (E)-2-(4-((diethylamino)methyl)benzylidene)-5,6-dimethoxy-2,3-dihydroinden-one]
CYP2C8; recombinant CYP2C8
  Cl int of N-des-ethylation (M3 formation): 1.59 A.U.
  V max of N-des-ethylation (M3 formation): 0.099±0.005 A.U.
CYP2C8
  K m of N-des-ethylation: 62.1 ± 8.2 µM
[1]; HLMs
  K m of hydrogenation (M2 formation): 21.4 ± 1.4 µM
  V max of hydrogenation (M2 formation): 0.252±0.008 nmol/min/mg protein
[1]
  K m of N-des-ethylation: 46.4 ± 5.9 µM
[1]; human, microsomes
  Cl int of N-des-ethylation (M3 formation): 2.39 A.U.
[1]; human, pH 7.4
  V max of N-des-ethylation (M3 formation): 0.111±0.008 A.U.
[1]; human, pH 7.4, HLMs, read-out: Cl int of hydrogenation (M2 formation)
  microsomal CLint: 11.8 µL/min/mg
[5]; cytosol vs HLMs
  K m of hydrogenation in cytosol relative to HLMs: about 2 times
  Rate of hydrogenation (V max) in human liver cytosol relative to HLMs: about 15 times
[5]; human liver cytosol
  K m of hydrogenation (M2 formation): 38.9 ± 2.5 µM
  V max of hydrogenation (M2 formation): 3.56±0.07 nmol/min/mg protein
[6]; blank Sf9 cells S9
  Metabolism into M2 in S9 fraction of blank Sf9 cells: rapidly metabolized into M2
[6]; compared with blank Sf9 S9
  Rate of formation of M2 in mixture of recombinant OR and cyt b5: significantly decreased
[7]
  Effect on chemical-induced learning and memory impairments: significantly improve
PC12 cells
  Effect on apoptosis induced by hydrogen peroxide: protect
CYP3A4 [2]; recombinant CYP3A4
  Cl int of N-des-ethylation (M3 formation): 6.76 A.U.
  V max of N-des-ethylation (M3 formation): 3.3±0.4 A.U.
CYP3A4 [2]
  K m of N-des-ethylation: 488.2 ± 160.2 µM

## CCNCc1ccc(/C=C2\Cc3cc(OC)c(OC)cc3C2=O)cc1 [M3]
[1]; human
  Further metabolism of M3: could be further biotransformed into M1

## COc1ccc2c(c1)c(CC(=O)O)c(C)n2C(=O)c1ccc(Cl)cc1 [indomethacin]
[8]
  IC50 at 20 min: 18.8 ± 1 µM

## CC(=O)C=Cc1ccccc1 [benzylideneacetone]
[9]
  Effect on hydrogenation of BYZX (formation of M2): significantly suppressed

## O=c1oc2ccccc2c(O)c1Cc1c(O)c2ccccc2oc1=O [dicoumarol]
[3]; 0.2 mg/mL protein, 20 min
  IC50: 7.7 ± 1.2 µM
[9]
  Effect on hydrogenation of BYZX (formation of M2): dramatic inhibitory effect
[8]
  IC50 at 20 min: 1.6 ± 1.3 µM
